Data from ChEMBL document CHEMBL6153138, “Discovery of Novel Aromatic Urea-Imidazole Salt Derivatives for Cancer Therapy via Targeting ERK1/2” (J Med Chem, 2025).
Activity calls are given as the source filed them. The rule behind the calls is not given here.

Tests used:
[1] = Oral availability in Sprague-Dawley rat at 10 mg/kg by LC-MS/MS analysis; assay type: ADME, organism-based; details: in vivo
[2] = system: MCF7; assay: Induction of autophagic flux in human MCF7 cells assessed as colocalization of LC3B at 1 uM incubated for 48 hrs in presence of chloroquine by immunofluorescence analysis; assay type: functional, cell-based
[3] = system: MCF7; assay: Induction of autophagy in human MCF7 cells assessed as increase in Beclin-1 level at 1 uM by Western blot analysis; assay type: functional, cell-based
[4] = target: Mitogen-activated protein kinase 1 (Homo sapiens, UniProt P28482); assay: Induction of thermal stabilization of ERK2 (unknown origin) at 10 uM by differential scanning fluorimetry analysis
[5] = system: 4T1; assay: Antitumor activity against mouse 4T1 cells implanted in female BALB/c mouse model assessed as reduction in number of PCNA-positive proliferative cells at 25 to 50 mg/kg, po qd by immunohistochemical analysis; assay type: functional, organism-based; details: dose 25-50 mg/kg
[6] = system: MCF-10A; assay: Antiproliferative activity against human MCF-10A cells incubated for 48 hrs by CCK-8 method; assay type: functional, cell-based
[7] = system: HCC1937; assay: Antiproliferative activity against human HCC1937 cells incubated for 48 hrs by CCK-8 method; assay type: functional, cell-based; details: HCC1937, 48 h
[8] = system: 4T1-Luc; assay: Anti-metastatic activity in mouse 4T1-Luc cells assessed as reduction in disruption of cell structure at 25 to 50 mg/kg, po measured after 20 days by H and E staining based analysis; assay type: functional, organism-based; details: dose 25-50 mg/kg, time 20.0 day
[9] = system: Mitochondrial membrane; assay: Induction of mitochondrial membrane potential loss in human MCF7 cells assessed as reduction in JC-1 aggregates by measuring decrease in red fluorescence at 2 uM by flow cytometry analysis (reference value: 24.7%); assay type: cell membranes; set-up: scale not given: the % may be the effect or the level left
[10] = target: Macrophage colony-stimulating factor 1 receptor (Homo sapiens) (UniProt P07333); assay: Inhibition of human FMS at 10000 nM by DiscoverX KINOMEscan assay relative to control
[11] = system: MCF7; assay: Induction of apoptosis in human MCF7 cells assessed as late apoptotic cells at 1 uM incubated for 48 hrs by Annexin V/FITC and PI staining based flow cytometry analysis (reference value: 2.5%); assay type: functional
[12] = Cmax in Sprague-Dawley rat at 10 mg/kg, po by LC-MS/MS analysis; assay type: ADME, organism-based; details: in vivo
[13] = system: MCF7; assay: Upregulation of caspase3 protein expression in human MCF-7 cells at 1 uM incubated for 6 hrs in presence of 3-methyladenine by Western blot analysis; assay type: functional, cell-based
[14] = system: MCF7; assay: Antiproliferative activity against human MCF7 cells harbouring ERK2 knockout incubated for 48 hrs by CCK-8 method; assay type: functional, cell-based
[15] = system: MCF7; assay: Induction of autophagy in human MCF7 cells assessed as increase in AMPK phosphorylation level at 0.5 to 2 uM incubated for 48 hrs by Western blotting analysis; assay type: functional, cell-based; details: dose 0.5-2 µM
[16] = system: 4T1; assay: Antitumor activity against mouse 4T1 cells implanted in female BALB/c mouse model assessed as tumor necrosis at 25 to 50 mg/kg, po qd measured for 18 days by H and E staining based analysis; assay type: functional, organism-based; details: dose 25-50 mg/kg, time 18.0 day
[17] = system: MCF7; assay: Induction of autophagy in human MCF7 cells assessed as increase in ATG5 level at 1 uM by Western blot analysis; assay type: functional, cell-based
[18] = system: MCF7; assay: Induction of apoptosis in human MCF7 cells assessed as early apoptotic cells at 1 uM incubated for 48 hrs in presence of chloroquine by Annexin V/FITC and PI staining based flow cytometry analysis (reference value: 8.72%); assay type: functional
[19] = Toxicity in female BALB/c mouse assessed as effect GLU level in serum at 25 to 50 mg/kg, po qd measured after 18 days by biochemical analysis; assay type: organism-based; details: in vivo, 432 h, dose 25-50 mg/kg, time 18 day
[20] = Cmax in Sprague-Dawley rat at 1 mg/kg, iv by LC-MS/MS analysis; assay type: ADME, organism-based; details: in vivo
[21] = system: 4T1; assay: Antitumor activity against mouse 4T1 cells implanted in female BALB/c mouse model assessed as increase in LC3B expression administered as po by immunohistochemical analysis; assay type: functional, organism-based; details: dose 25-50 mg/kg
[22] = system: 4T1; assay: Antitumor activity against mouse 4T1 cells implanted in female BALB/c mouse model assessed as reduction in c-Myc phosphorylation level at 50 mg/kg, po qd by immunohistochemical analysis; assay type: functional, organism-based
[23] = system: 4T1; assay: Antitumor activity against mouse 4T1 cells implanted in female BALB/c mouse model assessed as tumor growth inhibition at 25 mg/kg, po qd measured for 18 days relative to control; assay type: functional; details: 4T1, 432 h, time 18 day, read-out: TGI
[24] = system: MCF7; assay: Induction of apoptosis in human MCF7 cells assessed as increase in Bax/Bcl-2 ratio at 0.5 to 2 uM by Western blot analysis; assay type: functional, cell-based; details: dose 0.5-2 µM
[25] = target: Mitogen-activated protein kinase 3 (Homo sapiens, UniProt P27361); assay: Inhibition of ERK1 (unknown origin) incubated for 60 mins by luminescence based ADP-Glo kinase assay
[26] = system: MCF7; assay: Induction of apoptosis in human MCF7 cells assessed as early apoptotic cells at 2 uM incubated for 48 hrs by Annexin V/FITC and PI staining based flow cytometry analysis (reference value: 1.1%); assay type: functional
[27] = Toxicity in female BALB/c mouse assessed as effect ALB level in serum at 25 to 50 mg/kg, po qd measured after 18 days by biochemical analysis; assay type: organism-based; details: in vivo, 432 h, dose 25-50 mg/kg, time 18 day
[28] = Toxicity in female BALB/c mouse assessed as effect on liver at 25 to 50 mg/kg, po qd measured after 18 days by H and E staining based analysis; assay type: organism-based; details: in vivo, 432 h, dose 25-50 mg/kg, time 18 day
[29] = system: MCF7; assay: Induction of apoptosis in human MCF7 cells assessed as late apoptotic cells at 1 uM incubated for 48 hrs in presence of chloroquine by Annexin V/FITC and PI staining based flow cytometry analysis (reference value: 4.90%); assay type: functional
[30] = system: MCF7; assay: Downregulation of c-Myc phosphorylation expression in human MCF7 cells at 0.5 to 2 uM measured after 30 mins to 4 hrs by Western blot analysis; assay type: functional, cell-based; details: dose 0.5-2 µM, time 30-240 min
[31] = system: MCF7; assay: Upregulation of ERK1/2 phosphorylation expression in human MCF7 cells at 2 uM measured after 8 hrs by Western blot analysis; assay type: functional, cell-based
[32] = system: MCF7; assay: Downregulation of N-cadherin expression in human MCF7 cells at 0.5 to 2 uM; assay type: functional, cell-based; details: dose 0.5-2 µM
[33] = system: MCF7; assay: Inhibition of cell invasion in human MCF7 cells at incubated for 48 hrs by crystal violet staining based assay; assay type: functional; details: dose 0.5-2 µM
[34] = AUC (0 to infinity) in Sprague-Dawley rat at 1 mg/kg, iv by LC-MS/MS analysis; assay type: ADME, organism-based; details: in vivo
[35] = system: 4T1; assay: Antitumor activity against mouse 4T1 cells implanted in female BALB/c mouse model assessed as increase in tumor cell necrosis at 50 mg/kg, po qd measured for 18 days in presence of chloroquine; assay type: functional, organism-based; details: time 18.0 day
[36] = system: MCF7; assay: Induction of apoptosis in human MCF7 cells assessed as early apoptotic cells at 0.5 uM incubated for 48 hrs by Annexin V/FITC and PI staining based flow cytometry analysis (reference value: 1.1%); assay type: functional
[37] = system: MCF7; assay: Upregulation of caspase3 protein expression in human MCF-7 cells at 1 uM incubated for 6 hrs in presence of chloroquine by Western blot analysis; assay type: functional, cell-based

Mitogen-activated protein kinase 3, sequence (P27361 whole entry): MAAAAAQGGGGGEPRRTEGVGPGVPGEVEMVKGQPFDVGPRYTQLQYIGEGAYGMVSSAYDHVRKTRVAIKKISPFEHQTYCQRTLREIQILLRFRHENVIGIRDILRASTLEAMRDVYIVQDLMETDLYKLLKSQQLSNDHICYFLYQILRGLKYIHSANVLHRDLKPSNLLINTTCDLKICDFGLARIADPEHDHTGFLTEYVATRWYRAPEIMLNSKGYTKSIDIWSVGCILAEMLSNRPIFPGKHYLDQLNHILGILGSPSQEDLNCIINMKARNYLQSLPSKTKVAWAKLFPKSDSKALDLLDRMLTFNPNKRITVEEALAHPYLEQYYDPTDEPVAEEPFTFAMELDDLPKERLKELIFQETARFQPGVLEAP
Mitogen-activated protein kinase 1, sequence (P28482 whole entry): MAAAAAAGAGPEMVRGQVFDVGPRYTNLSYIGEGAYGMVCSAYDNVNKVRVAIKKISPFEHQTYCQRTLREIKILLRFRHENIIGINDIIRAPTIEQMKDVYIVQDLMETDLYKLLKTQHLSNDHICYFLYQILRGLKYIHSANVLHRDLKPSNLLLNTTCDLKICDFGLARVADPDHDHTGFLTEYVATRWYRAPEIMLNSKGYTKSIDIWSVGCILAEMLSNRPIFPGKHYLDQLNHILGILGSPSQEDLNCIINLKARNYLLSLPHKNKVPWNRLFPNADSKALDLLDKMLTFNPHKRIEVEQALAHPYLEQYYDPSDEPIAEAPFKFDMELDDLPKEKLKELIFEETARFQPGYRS
Macrophage colony-stimulating factor 1 receptor (Homo sapiens), sequence (P07333 whole entry): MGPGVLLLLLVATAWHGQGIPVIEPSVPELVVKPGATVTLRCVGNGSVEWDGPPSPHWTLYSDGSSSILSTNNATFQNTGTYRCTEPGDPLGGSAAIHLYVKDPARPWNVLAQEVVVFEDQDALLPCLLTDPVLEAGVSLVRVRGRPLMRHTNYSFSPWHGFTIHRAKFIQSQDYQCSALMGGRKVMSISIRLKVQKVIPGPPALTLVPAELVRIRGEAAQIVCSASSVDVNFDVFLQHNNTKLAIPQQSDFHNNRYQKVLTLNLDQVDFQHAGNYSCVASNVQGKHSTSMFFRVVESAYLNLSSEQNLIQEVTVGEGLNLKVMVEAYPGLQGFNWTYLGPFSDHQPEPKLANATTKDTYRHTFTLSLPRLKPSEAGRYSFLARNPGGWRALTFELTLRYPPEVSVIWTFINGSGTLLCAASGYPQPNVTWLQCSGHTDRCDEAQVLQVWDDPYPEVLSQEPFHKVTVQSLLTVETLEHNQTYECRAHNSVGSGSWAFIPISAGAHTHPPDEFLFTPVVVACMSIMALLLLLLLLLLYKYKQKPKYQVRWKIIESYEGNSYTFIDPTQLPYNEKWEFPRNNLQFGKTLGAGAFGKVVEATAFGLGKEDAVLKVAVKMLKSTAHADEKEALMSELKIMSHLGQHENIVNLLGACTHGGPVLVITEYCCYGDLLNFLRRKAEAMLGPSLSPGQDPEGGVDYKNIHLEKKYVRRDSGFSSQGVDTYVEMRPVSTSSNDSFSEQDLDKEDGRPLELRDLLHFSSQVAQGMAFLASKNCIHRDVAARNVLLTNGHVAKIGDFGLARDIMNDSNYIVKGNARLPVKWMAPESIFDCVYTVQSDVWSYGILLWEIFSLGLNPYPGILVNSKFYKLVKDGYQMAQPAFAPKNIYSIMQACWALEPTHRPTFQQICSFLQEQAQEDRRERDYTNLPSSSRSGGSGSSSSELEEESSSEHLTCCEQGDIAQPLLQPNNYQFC

SMILES: O=C(Nc1cc(C(F)(F)F)cc(C(F)(F)F)c1)N[C@@H](Cc1ccccc1)Cn1c[n+](Cc2ccc3ccccc3c2)c2ccccc21.[Br-]
- bioavailability [1]: 37.1%
- Activity [2]: Active
- Activity [3]: Active
- Activity [4]: Active
- Activity [5]: Active
- IC50 [6]: > 10 µM
- IC50 [7]: 1680 nM
- Activity [8]: Active
- Activity [9]: 5.4%
- inhibition [10]: 19%
- Activity [11]: 9.6%
- Cmax [12]: 770 ng/mL
- Activity [13]: Active
- Activity [14]: Not active; Compound Showed Less Sensitivity Response
- Activity [15]: Active
- Activity [16]: Active
- Activity [17]: Active
- Activity [18]: 4.92%
- Activity [19]: Non-toxic
- Cmax [20]: 534 ng/mL
- Activity [21]: Dose-dependent-effect
- Activity [22]: Active
- inhibition in vivo at 25 mg/kg [23]: 40.7%
- Activity [24]: Active
- IC50 [25]: 91.7 nM
- Activity [26]: 12.9%
- Activity [27]: Non-toxic
- Activity [28]: Non-toxic
- Activity [29]: 26.9%
- Activity [30]: Active
- Activity [31]: Active
- Activity [32]: Active
- inhibition [33]: Dose-dependent-effect
- AUC(0-inf) [34]: 1100 ng·h/mL
- Activity [35]: Active
- Activity [36]: 9.9%
- Activity [37]: Active
